Read-outs that look alike come from different tables or passages of the source.
Legend:
METTL3/METTL14 = METTL3/METTL14 (Homo sapiens, UniProt Q86U44); experiment: METTL3-14 Standard Enzyme Assay (METTL3 biochemical assay)
Procedure, shortened: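 Tritium transfer from ³H-SAM (100 nM) to biotinylated RNA (100 nM) captured on streptavidin flashplates and counted by scintillation. Enzyme complex (2.5 nM) with compound, 5 min preincubation, 30 min reaction at ambient temperature, HEPES pH 7.5 buffer, stopped by excess unlabeled SAM.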

METTL16 = molecular target: T1, METTL16 (Homo sapiens, UniProt Q86W50); experiment: METTL16 Assay (METTL16 biochemical assay); conditions: read-out: METTL16 IC50
T1 sequence (Q86W50 1-562): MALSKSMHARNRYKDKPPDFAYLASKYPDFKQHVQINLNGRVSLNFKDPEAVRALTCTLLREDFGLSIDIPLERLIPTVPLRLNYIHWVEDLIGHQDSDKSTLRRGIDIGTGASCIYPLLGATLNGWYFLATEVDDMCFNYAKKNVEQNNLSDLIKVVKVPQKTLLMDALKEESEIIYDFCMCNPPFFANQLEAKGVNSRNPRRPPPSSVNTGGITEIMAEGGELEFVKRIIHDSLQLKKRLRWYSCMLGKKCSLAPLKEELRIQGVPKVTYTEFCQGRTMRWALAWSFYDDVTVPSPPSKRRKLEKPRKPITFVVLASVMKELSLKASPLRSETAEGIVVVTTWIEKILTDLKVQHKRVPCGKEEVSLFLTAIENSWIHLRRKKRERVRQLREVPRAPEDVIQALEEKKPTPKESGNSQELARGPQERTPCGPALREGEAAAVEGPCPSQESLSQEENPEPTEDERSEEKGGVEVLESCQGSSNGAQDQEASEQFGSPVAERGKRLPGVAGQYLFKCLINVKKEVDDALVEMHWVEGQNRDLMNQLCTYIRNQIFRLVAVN
Method: Assays were performed in a 25 μl-volume in 384-well V-bottom polypropylene microplates (Greiner Bio-One, cat. No. 781280) at ambient temperature. Optimized 1× assay buffer was 20 mM HEPES pH 7.5, 50 mM KCl, 1 mM DTT, 0.01% Tween, 0.01% BSG, 0.004 U/μl RNAseOUT (cat. No. 10777019, ThermoFisher Scientific, Waltham, Mass.). For compound screening METTL16 (final concentration, f.c.=100 nM) was added using a Multidrop Combi (ThermoFisher Scientific, Waltham, Mass.) and preincubated for 5 min. Reactions were started by adding 3′ biotinylated RNA ([…]-biotin) (f.c.=50 nM), 3H-SAM (f.c.=200 nM) and non-radiolabeled SAM (f.c.=800 nM) substrates. Reactions proceeded for 20 minutes and were quenched with excess non-radioactive SAM (f.c.=100 μM). The reactions were then transferred to streptavidin-coated flashplates and incubated for 2 hours at 25° C. Following two washing cycles with 0.1% Tween-20, the plates were sealed and read on a TopCount (PerkinElmer, Waltham, Mass.) plate-based scintillation counter. For determination of kinetic parameters, reaction times were optimized so that measurements were taken during the initial velocity phase of the reaction.

PRMT5-MEP50 = PRMT5-MEP50 (Homo sapiens, UniProt O14744); experiment: PRMT5 Assay (PRMT5 biochemical assay)
Chain of PRMT5-MEP50 (O14744 whole entry): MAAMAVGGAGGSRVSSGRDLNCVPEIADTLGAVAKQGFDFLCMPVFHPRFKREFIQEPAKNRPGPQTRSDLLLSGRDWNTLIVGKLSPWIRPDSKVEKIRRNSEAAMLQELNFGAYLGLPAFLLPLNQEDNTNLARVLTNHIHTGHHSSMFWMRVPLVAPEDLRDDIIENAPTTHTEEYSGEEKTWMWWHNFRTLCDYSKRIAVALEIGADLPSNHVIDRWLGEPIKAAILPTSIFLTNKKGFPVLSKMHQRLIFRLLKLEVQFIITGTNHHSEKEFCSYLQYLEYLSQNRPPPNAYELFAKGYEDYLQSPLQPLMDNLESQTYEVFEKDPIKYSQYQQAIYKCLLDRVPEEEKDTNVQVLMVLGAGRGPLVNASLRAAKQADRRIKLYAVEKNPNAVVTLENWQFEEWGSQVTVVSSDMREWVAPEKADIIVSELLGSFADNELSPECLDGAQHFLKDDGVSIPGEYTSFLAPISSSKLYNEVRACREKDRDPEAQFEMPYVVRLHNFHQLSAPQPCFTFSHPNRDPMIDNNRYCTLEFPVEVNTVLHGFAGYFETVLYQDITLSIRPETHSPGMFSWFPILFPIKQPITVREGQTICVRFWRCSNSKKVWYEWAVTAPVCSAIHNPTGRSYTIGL
Chain of PRMT5-MEP50 (Q9BQA1 whole entry partner): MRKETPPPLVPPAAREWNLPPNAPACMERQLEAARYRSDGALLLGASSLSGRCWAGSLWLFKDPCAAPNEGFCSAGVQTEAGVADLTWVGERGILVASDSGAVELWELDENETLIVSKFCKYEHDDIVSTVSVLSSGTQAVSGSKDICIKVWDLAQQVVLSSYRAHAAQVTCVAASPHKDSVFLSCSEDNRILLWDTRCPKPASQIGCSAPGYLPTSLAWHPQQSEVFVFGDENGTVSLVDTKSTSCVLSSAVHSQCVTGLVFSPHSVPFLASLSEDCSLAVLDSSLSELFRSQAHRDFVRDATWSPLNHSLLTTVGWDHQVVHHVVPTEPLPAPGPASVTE
Procedure, shortened: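 Radiometric methyltransferase read-out: after 60 min reaction, excess unlabelled SAM (15 μM) stops turnover and biotinylated H4 peptide (100 nM) carrying 3H-methyl from 250 nM 3H-SAM is captured on streptavidin flashplates (2 h, 25° C) for scintillation counting. Enzyme, 2.5 nM PRMT5-MEP50, was preincubated 5 min with compound in pH 8.0 Tris buffer with DTT and Tween.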

[1] = system: m6A in cellular mRNA of MOLM-13 cells; experiment: m6A-mRNA LC-MS/MS Assay (m6A cellular assay); format: cell-based; conditions: Homo sapiens, MOLM-13, read-out: m^6A IC50
Method: Cells were harvested by centrifugation followed by mRNA extraction using DIRECT Dynabeads mRNA DIRECT kit (Life Technologies). mRNA was quantified on NanoDrop spectrophotometer (Thermo Fisher Scientific) and digested into single nucleosides using Nucleoside Digestion Mix (New England Biolabs). […] Quantification is performed in comparison with the standard curve, obtained from pure nucleoside standards (Selleck Chemicals) running with the same batch of samples. Percentage m^6A in cellular mRNA is calculated as 100*(m^6A/A).

MOLM-13 cells [2] = experiment: MOLM-13 48 Hour Cell Proliferation Assay; format: cell-based; conditions: Homo sapiens
Procedure, shortened: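 IC50 derived by 4-parameter logistic regression of CellTiter-Glo luminescence, scaled between DMSO (0% death) and staurosporine (100% death) controls. Compounds applied for 48 h at 37 °C as 10-point, 4-fold dilutions, 0.25% DMSO final, to MOLM-13 cells pre-seeded overnight in RPMI 1640 plus 10% FBS.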

METTL1/WDR4 = METTL1/WDR4 (Homo sapiens, UniProt Q9UBP6); experiment: METTL1 Assay (METTL1 biochemical assay)
Chain of METTL1/WDR4 (Q9UBP6 whole entry, species assumed): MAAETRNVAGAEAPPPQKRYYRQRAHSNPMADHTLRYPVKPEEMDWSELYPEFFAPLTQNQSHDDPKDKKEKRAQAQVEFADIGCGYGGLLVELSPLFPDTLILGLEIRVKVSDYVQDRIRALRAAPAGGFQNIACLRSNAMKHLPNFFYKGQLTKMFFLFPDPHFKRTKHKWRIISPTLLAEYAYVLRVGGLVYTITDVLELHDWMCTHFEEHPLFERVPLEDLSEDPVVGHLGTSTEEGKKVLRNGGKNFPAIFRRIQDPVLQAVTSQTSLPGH
Chain of METTL1/WDR4 (P57081 whole entry partner, species assumed): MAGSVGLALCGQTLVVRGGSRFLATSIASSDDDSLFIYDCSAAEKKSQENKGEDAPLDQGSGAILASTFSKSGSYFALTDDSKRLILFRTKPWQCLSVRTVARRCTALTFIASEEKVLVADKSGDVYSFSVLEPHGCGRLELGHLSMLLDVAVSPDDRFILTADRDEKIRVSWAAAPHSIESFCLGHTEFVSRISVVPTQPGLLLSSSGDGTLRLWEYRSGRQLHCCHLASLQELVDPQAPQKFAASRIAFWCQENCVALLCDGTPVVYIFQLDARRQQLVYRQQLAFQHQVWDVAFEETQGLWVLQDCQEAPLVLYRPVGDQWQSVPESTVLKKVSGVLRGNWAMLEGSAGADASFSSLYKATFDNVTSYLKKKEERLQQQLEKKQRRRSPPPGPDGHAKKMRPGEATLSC
Procedure, shortened: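 Radiometric methyltransfer by METTL1/WDR4 (6.25 nM f.c., 5 min preincubation) at ambient temperature in HEPES pH 7.5, KCl, MgCl2, DTT; started with 25 nM 3′-biotinylated RNA and 60 nM 3H-SAM, run 20 min, quenched with 15 μM cold SAM. Product captured on streptavidin flashplates (2 h, 25° C), counted by scintillation.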

MOLM-13 cells [3] = experiment: MOLM-13 96 Hour Cell Proliferation Assay; format: cell-based; conditions: Homo sapiens, MOLM-13, 96 h
Procedure, shortened: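 MOLM-13 cells in RPMI 1640 with 10% FBS were plated overnight at 37 °C, then exposed to compound dilutions at 0.25% DMSO final for 96 h. Viability was read by CellTiter-Glo luminescence, normalised to staurosporine (100% death) and DMSO (0% death) controls, and IC50 was fitted by 4-parameter logistic regression.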

[4] = read-out: METTL3 IC50, METTL3 biochemical assay
[5] = read-out: PRMT5 IC50, PRMT5 biochemical assay
[6] = METTL3 biochemical assay, read-out: METTL3 IC50
[7] = PRMT5 biochemical assay, read-out: PRMT5 IC50
[8] = read-out: METTL1 IC50, METTL1 biochemical assay
[9] = METTL1 biochemical assay, read-out: METTL1 IC50

Chain of METTL3/METTL14 (Q86U44 whole entry, species assumed): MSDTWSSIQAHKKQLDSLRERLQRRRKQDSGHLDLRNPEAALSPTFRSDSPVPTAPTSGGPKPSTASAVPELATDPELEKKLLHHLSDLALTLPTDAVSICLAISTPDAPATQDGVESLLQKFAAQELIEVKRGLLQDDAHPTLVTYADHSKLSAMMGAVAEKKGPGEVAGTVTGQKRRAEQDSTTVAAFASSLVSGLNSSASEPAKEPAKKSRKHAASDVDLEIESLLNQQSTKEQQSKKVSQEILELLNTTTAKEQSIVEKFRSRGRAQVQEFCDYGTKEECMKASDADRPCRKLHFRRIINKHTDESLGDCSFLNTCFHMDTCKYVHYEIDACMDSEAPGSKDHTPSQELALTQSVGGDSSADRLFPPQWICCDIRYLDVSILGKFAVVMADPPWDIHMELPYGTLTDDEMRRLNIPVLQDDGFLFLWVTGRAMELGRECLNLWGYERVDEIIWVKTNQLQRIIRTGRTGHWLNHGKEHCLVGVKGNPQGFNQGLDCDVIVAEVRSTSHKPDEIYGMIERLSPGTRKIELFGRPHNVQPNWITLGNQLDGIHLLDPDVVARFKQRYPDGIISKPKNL
Chain of METTL3/METTL14 (Q9HCE5 whole entry partner, species assumed): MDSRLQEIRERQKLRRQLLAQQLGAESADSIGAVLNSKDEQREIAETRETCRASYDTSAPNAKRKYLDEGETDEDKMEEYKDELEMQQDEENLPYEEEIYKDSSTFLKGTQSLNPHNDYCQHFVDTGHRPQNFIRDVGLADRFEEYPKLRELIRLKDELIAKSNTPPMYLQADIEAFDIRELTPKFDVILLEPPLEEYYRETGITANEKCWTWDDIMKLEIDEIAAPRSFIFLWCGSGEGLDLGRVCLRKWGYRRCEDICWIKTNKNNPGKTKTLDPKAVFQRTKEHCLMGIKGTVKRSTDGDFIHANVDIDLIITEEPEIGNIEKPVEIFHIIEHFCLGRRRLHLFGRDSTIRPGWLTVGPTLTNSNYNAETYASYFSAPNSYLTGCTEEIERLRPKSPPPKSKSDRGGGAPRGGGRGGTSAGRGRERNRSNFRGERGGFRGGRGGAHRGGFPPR

Compound	IC50 (METTL3/METTL14; [4]) [nM]	IC50 (METTL16) [nM]	IC50 (PRMT5-MEP50; [5]) [nM]	IC50 [1] [nM]	IC50 (MOLM-13 cells [2]) [nM]	IC50 (METTL3/METTL14; [6]) [nM]	IC50 (METTL1/WDR4) [nM]	IC50 (PRMT5-MEP50; [7]) [nM]	IC50 (METTL1/WDR4; [8]) [nM]	IC50 (MOLM-13 cells [3]) [nM]	IC50 (METTL1/WDR4; [9]) [nM]	IC50 (METTL3/METTL14) [nM]	IC50 (PRMT5-MEP50) [nM]
CNc1ccc2ccc(OC[C@H]3O[C@@H](n4cc(-c5cn(C)cn5)c5c(N)ncnc54)[C@@H](F)[C@@H]3O)cc2n1 [I-28]	< 10	> 1000	100 to 1000	1000 to 10000	1000 to 10000	–	–	–	–	–	–	–	–
CNc1ccc2ccc(CC[C@H]3C[C@@H](n4cc(CO)c5c(N)ncnc54)[C@H](O)[C@@H]3O)cc2n1 [I-52, (1R,2S,3R,5S)-3-[4-amino-5-(hydroxymethyl)-7H-pyrrolo[2,3-d]pyrimidin-7-yl]-5-{2-[2-(methylamino)quinolin-7-yl]ethyl}cyclopentane-1,2-diol]	–	> 1000	–	1000 to 10000	–	< 10	> 1000	< 10	–	–	–	–	–
CNc1ccc2ccc(CC[C@H]3C[C@@H](n4cc(C5CCCCC5)c5c(N)ncnc54)[C@H](O)[C@@H]3O)cc2n1 [I-59]	–	–	–	1000 to 10000	1000 to 10000	< 10	–	< 10	> 1000	< 1000	–	–	–
CN(C)c1ccc2ccc(OC[C@H]3O[C@@H](n4ccc5c(N)ncnc54)[C@H](O)[C@@H]3O)cc2n1 [I-78]	–	–	–	> 10000	> 10000	10 to 100	–	10 to 100	> 1000	1000 to 10000	–	–	–
CN(C)c1ccc2ccc(CC[C@H]3C[C@@H](n4ccc5c(N)ncnc54)[C@H](O)[C@@H]3O)cc2n1 [I-98]	–	–	–	> 10000	> 10000	10 to 100	–	10 to 100	> 1000	1000 to 10000	–	–	–
Nc1ncnc2c1ccn2[C@@H]1C[C@H](CCc2ccccn2)[C@@H](O)[C@H]1O [I-118]	–	–	–	> 10000	> 10000	> 1000	–	100 to 1000	> 1000	> 10000	–	–	–
CNc1ccc2ccc(OC[C@H]3O[C@@H](n4cc(-c5ccc(C)o5)c5c(N)ncnc54)[C@@H](F)[C@@H]3O)cc2n1 [I-148]	< 10	–	100 to 1000	< 1000	< 1000	–	–	–	–	< 1000	> 1000	–	–
CNc1ccc2ccc(OC[C@H]3O[C@@H](n4cc(-c5cc[nH]n5)c5c(N)ncnc54)[C@@H](F)[C@@H]3O)cc2n1 [I-228]	–	–	–	1000 to 10000	< 1000	–	–	–	–	< 1000	> 1000	< 10	100 to 1000
CCNc1ccc2ccc(OC[C@H]3O[C@@H](n4cc(Cl)c5c(N)ncnc54)[C@@H](F)[C@@H]3O)cc2n1 [I-234]	–	–	–	1000 to 10000	1000 to 10000	< 10	> 1000	10 to 100	–	1000 to 10000	–	–	–
